Test results from paper PMC9011347, “Small-Molecule Inhibitors Targeting Lipolysis in Human Adipocytes” (Journal of the American Chemical Society, 2022).

Assay: Serum stability of ATGL inhibitors (UHPLC-MS)
Format: in vitro ADME, human
Settings: 3 h at 37 °C
Procedure: Figure 2 Development and characterization of the human ATGL inhibitor NG-497. (a) Structure and IC50 values of human ATGL inhibitors. (b) Dose-dependent inhibition of human ATGL by respective inhibitors. (c) ATGL activity was determined at the indicated substrate concentrations in the absence and presence of NG-497 (0.5 μM). Ki was determined by nonlinear regression analysis using GraphPad Prism. Lineweaver–Burk analysis of ATGL inhibition is shown in the inset. (d) Toxicity of NG-497 in HepG2 cells was determined after 24 h incubation at indicated concentrations. Cisplatin and DMSO were used as positive and negative controls, respectively. Cytotoxicity was determined using the Roche LDH Kit and calculated as relative LDH release compared to fully lysed cells. (e) Stability of NG-497 was analyzed via ultrahigh-performance liquid chromatography–mass spectrometry (UHPLC-MS) after incubation in human serum for 0 or 3 h at 37 °C. Atglistatin and a chemically related unstable compound were used as controls. […] NG-497 concentrations/well were determined at the indicated time points using UHPLC-MS. […] Statistical significance was determined via t test (*p < 0.05; **p < 0.01; ***p < 0.001) or ANOVA followed by Bonferroni post hoc test (^###p < 0.001). […] The detected 297 lipid species of both groups were analyzed with supervised multivariate analysis OPLS-DA and are shown as a loading plot. […]

SMILES | stability in human serum
CN(C)C(=O)Nc1cccc(-c2ccc(N(C)C)cc2)c1 [Atglistatin, reference compound] | not metabolized
CCOc1ccc(-c2cc(OC)cc(C(=O)OC(C)C)n2)cc1 [NG-497] | not metabolized
